Data as given in the supplement of paper PMC10307832.

How the values were obtained:
Assay in all cases: relative viability (nuclei count vs DMSO), 5 days (fraction); higher = more cells survive
LU99A = tested on: LU99A
Procedure, shortened: (§1)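 Five library-drug doses in √10 steps were combined with a fixed anchor-drug dose, or a single drug was given alone, by pin tool to lung cancer cell lines in 1536-well plates the day after seeding. Nuclei were stained and counted after 5 days. Relative viability is the nuclei count in treated wells over that in vehicle wells, taken as the median of duplicate plates.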

LC-2-ad = tested on: LC-2-ad
Procedure, shortened: as §1

NCI-H358 = tested on: NCI-H358
Procedure, shortened: as §1

UMC-11 = tested on: UMC-11
Procedure, shortened: as §1

NCI-H1915 = tested on: NCI-H1915
Procedure, shortened: as §1

NCI-H1944 = tested on: NCI-H1944
Procedure, shortened: as §1

HOP-62 = tested on: HOP-62
Procedure, shortened: as §1

NCI-H1666 = tested on: NCI-H1666
Procedure, shortened: as §1

NCI-H1793 = tested on: NCI-H1793
Procedure, shortened: as §1

HCC-78 = tested on: HCC-78
Procedure, shortened: as §1

SK-LU-1 = tested on: SK-LU-1
Procedure, shortened: as §1

NCI-H2085 = tested on: NCI-H2085
Procedure, shortened: as §1

EPLC-272H = tested on: EPLC-272H
Procedure, shortened: as §1

COR-L 105 = tested on: COR-L 105
Procedure, shortened: as §1

NCI-H460 = tested on: NCI-H460
Procedure, shortened: as §1

A-427 = tested on: A-427
Procedure, shortened: as §1

HCC-366 = tested on: HCC-366
Procedure, shortened: as §1

NCI-H2009 = tested on: NCI-H2009
Procedure, shortened: as §1

NCI-H1792 = tested on: NCI-H1792
Procedure, shortened: as §1

LXF-289 = tested on: LXF-289
Procedure, shortened: as §1

SMILES: COc1cc2nccc(Oc3ccc(NC(=O)Nc4cc(C)on4)c(Cl)c3)c2cc1OC [Tivozanib] + C[C@]1(O)C[C@@H](c2nc(-c3ccc4ccc(-c5ccccc5)nc4c3)c3c(N)nccn32)C1 [Linsitinib] (partner 1 µM)
- relative viability (LU99A; first compound 0.005 µM): 0.517
- relative viability (LU99A; first compound 0.01581 µM): 0.506
- relative viability (LU99A; first compound 0.05 µM): 0.581
- relative viability (LU99A; first compound 0.5 µM): 0.534
- relative viability (LC-2-ad; first compound 0.005 µM): 0.86
- relative viability (LC-2-ad; first compound 0.01581 µM): 0.791
- relative viability (LC-2-ad; first compound 0.05 µM): 0.73
- relative viability (LC-2-ad; first compound 0.1581 µM): 0.526
- relative viability (LC-2-ad; first compound 0.5 µM): 0.616
- relative viability (NCI-H358; first compound 0.005 µM): 0.765
- relative viability (NCI-H358; first compound 0.01581 µM): 0.849
- relative viability (NCI-H358; first compound 0.05 µM): 0.718
- relative viability (NCI-H358; first compound 0.1581 µM): 0.695
- relative viability (NCI-H358; first compound 0.5 µM): 0.782
- relative viability (UMC-11; first compound 0.005 µM): 1.08
- relative viability (UMC-11; first compound 0.01581 µM): 1.01
- relative viability (UMC-11; first compound 0.05 µM): 1.06
- relative viability (UMC-11; first compound 0.5 µM): 0.997
- relative viability (NCI-H1915; first compound 0.005 µM): 1.08
- relative viability (NCI-H1915; first compound 0.01581 µM): 1.14
- relative viability (NCI-H1915; first compound 0.05 µM): 1.12
- relative viability (NCI-H1915; first compound 0.1581 µM): 1.07
- relative viability (NCI-H1915; first compound 0.5 µM): 1.05
- relative viability (NCI-H1944; first compound 0.005 µM): 1.14
- relative viability (NCI-H1944; first compound 0.01581 µM): 1.2
- relative viability (NCI-H1944; first compound 0.05 µM): 1.29
- relative viability (NCI-H1944; first compound 0.1581 µM): 1.1
- relative viability (NCI-H1944; first compound 0.5 µM): 1.21
- relative viability (HOP-62; first compound 0.005 µM): 0.87
- relative viability (HOP-62; first compound 0.01581 µM): 0.929
- relative viability (HOP-62; first compound 0.05 µM): 1.16
- relative viability (HOP-62; first compound 0.1581 µM): 0.932
- relative viability (HOP-62; first compound 0.5 µM): 0.988
- relative viability (NCI-H1666; first compound 0.005 µM): 0.748
- relative viability (NCI-H1666; first compound 0.01581 µM): 0.856
- relative viability (NCI-H1666; first compound 0.05 µM): 0.975
- relative viability (NCI-H1666; first compound 0.1581 µM): 0.783
- relative viability (NCI-H1666; first compound 0.5 µM): 0.876
- relative viability (NCI-H1793; first compound 0.005 µM): 0.778
- relative viability (NCI-H1793; first compound 0.01581 µM): 0.954
- relative viability (NCI-H1793; first compound 0.05 µM): 0.774
- relative viability (NCI-H1793; first compound 0.5 µM): 1.19
- relative viability (HCC-78; first compound 0.005 µM): 0.53
- relative viability (HCC-78; first compound 0.01581 µM): 0.492
- relative viability (HCC-78; first compound 0.05 µM): 0.437
- relative viability (HCC-78; first compound 0.1581 µM): 0.415
- relative viability (HCC-78; first compound 0.5 µM): 0.451
- relative viability (SK-LU-1; first compound 0.005 µM): 0.979
- relative viability (SK-LU-1; first compound 0.01581 µM): 1.08
- relative viability (SK-LU-1; first compound 0.05 µM): 1.34
- relative viability (SK-LU-1; first compound 0.1581 µM): 0.813
- relative viability (SK-LU-1; first compound 0.5 µM): 0.938
- relative viability (NCI-H2085; first compound 0.005 µM): 0.917
- relative viability (NCI-H2085; first compound 0.01581 µM): 0.854
- relative viability (NCI-H2085; first compound 0.05 µM): 1.06
- relative viability (NCI-H2085; first compound 0.1581 µM): 0.781
- relative viability (NCI-H2085; first compound 0.5 µM): 0.877
- relative viability (EPLC-272H; first compound 0.005 µM): 1.1
- relative viability (EPLC-272H; first compound 0.01581 µM): 1.14
- relative viability (EPLC-272H; first compound 0.05 µM): 1.17
- relative viability (EPLC-272H; first compound 0.1581 µM): 0.955
- relative viability (EPLC-272H; first compound 0.5 µM): 1.12
- relative viability (COR-L 105; first compound 0.01581 µM): 1.25
- relative viability (COR-L 105; first compound 0.05 µM): 1.02
- relative viability (COR-L 105; first compound 0.1581 µM): 1.02
- relative viability (COR-L 105; first compound 0.5 µM): 0.904
- relative viability (NCI-H460; first compound 0.005 µM): 0.783
- relative viability (NCI-H460; first compound 0.01581 µM): 0.806
- relative viability (NCI-H460; first compound 0.05 µM): 0.858
- relative viability (NCI-H460; first compound 0.1581 µM): 0.871
- relative viability (NCI-H460; first compound 0.5 µM): 0.733
- relative viability (A-427; first compound 0.005 µM): 1.09
- relative viability (A-427; first compound 0.01581 µM): 1.1
- relative viability (A-427; first compound 0.05 µM): 1.23
- relative viability (A-427; first compound 0.1581 µM): 0.987
- relative viability (A-427; first compound 0.5 µM): 1.07
- relative viability (HCC-366; first compound 0.005 µM): 0.475
- relative viability (HCC-366; first compound 0.01581 µM): 0.57
- relative viability (HCC-366; first compound 0.05 µM): 0.712
- relative viability (HCC-366; first compound 0.1581 µM): 0.516
- relative viability (HCC-366; first compound 0.5 µM): 0.606
- relative viability (NCI-H2009; first compound 0.005 µM): 1.15
- relative viability (NCI-H2009; first compound 0.01581 µM): 1.19
- relative viability (NCI-H2009; first compound 0.05 µM): 1.23
- relative viability (NCI-H2009; first compound 0.1581 µM): 1.25
- relative viability (NCI-H2009; first compound 0.5 µM): 1.23
- relative viability (NCI-H1792; first compound 0.005 µM): 0.535
- relative viability (NCI-H1792; first compound 0.01581 µM): 0.581
- relative viability (NCI-H1792; first compound 0.05 µM): 0.534
- relative viability (NCI-H1792; first compound 0.1581 µM): 0.698
- relative viability (NCI-H1792; first compound 0.5 µM): 0.592
- relative viability (LXF-289; first compound 0.005 µM): 0.974
- relative viability (LXF-289; first compound 0.01581 µM): 0.929
- relative viability (LXF-289; first compound 0.05 µM): 0.945
- relative viability (LXF-289; first compound 0.1581 µM): 1.02
- relative viability (LXF-289; first compound 0.5 µM): 0.983
